Measured values from ChEMBL document CHEMBL5390264, “Exploring Fatty Acid Mimetics as NR4A Ligands” (J Med Chem, 2023).
pEC50: −log10 of the molar value. Active and inactive are the calls of the source. No cut-off for these calls is given here.

How the values were obtained:
Assay type in all cases: cell-based
[1] = Selectivity ratio for agonist activity at THRalpha LBD (unknown origin) transiently transfected in HEK293T cells to agonist activity at human Nur77 LBD transiently transfected in HEK293T cells
[2] = molecular target: T1, Nuclear receptor subfamily 4 group A member 3 (Homo sapiens, UniProt Q92570); experiment: Agonist activity at human NOR-1 LBD transiently transfected in HEK293T cells incubated for 16 hrs by Gal4-hybrid reporter gene based Dual-glo luciferase assay
T1 sequence (Q92570 whole entry, the tested form may be a part): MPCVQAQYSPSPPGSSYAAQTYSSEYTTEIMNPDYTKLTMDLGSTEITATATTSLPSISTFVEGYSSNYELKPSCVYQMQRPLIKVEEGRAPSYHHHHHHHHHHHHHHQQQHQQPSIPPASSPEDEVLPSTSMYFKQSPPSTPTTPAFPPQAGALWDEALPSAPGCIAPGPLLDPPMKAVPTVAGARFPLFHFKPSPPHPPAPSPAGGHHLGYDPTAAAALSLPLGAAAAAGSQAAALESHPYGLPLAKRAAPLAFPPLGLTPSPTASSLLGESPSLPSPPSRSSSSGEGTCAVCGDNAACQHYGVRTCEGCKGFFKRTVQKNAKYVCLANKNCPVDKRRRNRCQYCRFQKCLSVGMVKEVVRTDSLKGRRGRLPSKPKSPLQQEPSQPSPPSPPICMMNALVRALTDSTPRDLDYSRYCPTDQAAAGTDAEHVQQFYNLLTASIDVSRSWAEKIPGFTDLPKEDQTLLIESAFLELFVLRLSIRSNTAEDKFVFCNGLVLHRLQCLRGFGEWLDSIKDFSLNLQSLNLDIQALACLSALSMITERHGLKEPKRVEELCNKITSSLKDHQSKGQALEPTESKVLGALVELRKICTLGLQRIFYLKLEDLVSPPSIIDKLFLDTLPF

[3] = Selectivity ratio for agonist activity at RXRalpha LBD (unknown origin) transiently transfected in HEK293T cells to agonist activity at human Nurr1 LBD transiently transfected in HEK293T cells
[4] = molecular target: Nuclear receptor subfamily 4immunitygroup A member 1 (Homo sapiens, UniProt P22736); experiment: Agonist activity at human Nur77 LBD transiently transfected in HEK293T cells assessed as maximal activation incubated for 16 hrs by Gal4-hybrid reporter gene based Dual-glo luciferase assay relative to control; details: filed as agonist
Chain of Nuclear receptor subfamily 4immunitygroup A member 1 (P22736 whole entry, the tested form may be a part): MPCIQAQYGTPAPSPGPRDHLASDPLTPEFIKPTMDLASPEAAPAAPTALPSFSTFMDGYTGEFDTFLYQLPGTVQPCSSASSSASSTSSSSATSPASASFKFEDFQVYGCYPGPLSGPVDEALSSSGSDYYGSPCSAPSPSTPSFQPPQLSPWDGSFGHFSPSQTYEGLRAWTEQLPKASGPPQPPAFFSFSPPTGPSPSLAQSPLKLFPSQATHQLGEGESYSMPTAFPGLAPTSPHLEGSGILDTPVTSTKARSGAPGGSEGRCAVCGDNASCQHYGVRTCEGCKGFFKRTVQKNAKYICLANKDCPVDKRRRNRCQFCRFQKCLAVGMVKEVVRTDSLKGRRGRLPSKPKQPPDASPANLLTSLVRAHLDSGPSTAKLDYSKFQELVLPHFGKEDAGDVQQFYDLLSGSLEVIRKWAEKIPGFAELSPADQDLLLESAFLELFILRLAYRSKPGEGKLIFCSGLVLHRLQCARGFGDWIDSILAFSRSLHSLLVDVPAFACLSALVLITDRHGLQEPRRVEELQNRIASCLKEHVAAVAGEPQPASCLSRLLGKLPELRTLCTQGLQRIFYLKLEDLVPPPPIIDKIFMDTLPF

[5] = molecular target: T2, Vitamin D3 receptor (Homo sapiens) (UniProt P11473); experiment: Agonist activity at VDR LBD (unknown origin) transiently transfected in HEK293T cells at 1 uM incubated for 16 hrs by Gal4-hybrid reporter gene based Dual-glo luciferase assay
T2 sequence (whole entry): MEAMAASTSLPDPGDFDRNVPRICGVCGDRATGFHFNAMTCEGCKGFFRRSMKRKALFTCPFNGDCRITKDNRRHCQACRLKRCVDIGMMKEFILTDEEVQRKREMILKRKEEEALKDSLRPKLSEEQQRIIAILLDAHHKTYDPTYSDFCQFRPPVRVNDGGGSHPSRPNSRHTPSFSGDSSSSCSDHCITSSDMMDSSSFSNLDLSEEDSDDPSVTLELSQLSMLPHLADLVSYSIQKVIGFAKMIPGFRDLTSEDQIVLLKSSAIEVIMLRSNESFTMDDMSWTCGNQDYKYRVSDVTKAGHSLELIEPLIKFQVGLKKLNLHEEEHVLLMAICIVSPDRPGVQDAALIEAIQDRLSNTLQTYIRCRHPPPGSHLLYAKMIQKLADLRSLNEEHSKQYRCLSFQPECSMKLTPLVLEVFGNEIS

[6] = molecular target: T3, Retinoic acid receptor RXR-alpha (Homo sapiens) (UniProt P19793); experiment: Agonist activity at human full length RXRalpha transiently transfected in HEK293T cells at 1 uM incubated for 16 hrs by Gal4-hybrid reporter gene based Dual-glo luciferase assay
T3 sequence (whole entry): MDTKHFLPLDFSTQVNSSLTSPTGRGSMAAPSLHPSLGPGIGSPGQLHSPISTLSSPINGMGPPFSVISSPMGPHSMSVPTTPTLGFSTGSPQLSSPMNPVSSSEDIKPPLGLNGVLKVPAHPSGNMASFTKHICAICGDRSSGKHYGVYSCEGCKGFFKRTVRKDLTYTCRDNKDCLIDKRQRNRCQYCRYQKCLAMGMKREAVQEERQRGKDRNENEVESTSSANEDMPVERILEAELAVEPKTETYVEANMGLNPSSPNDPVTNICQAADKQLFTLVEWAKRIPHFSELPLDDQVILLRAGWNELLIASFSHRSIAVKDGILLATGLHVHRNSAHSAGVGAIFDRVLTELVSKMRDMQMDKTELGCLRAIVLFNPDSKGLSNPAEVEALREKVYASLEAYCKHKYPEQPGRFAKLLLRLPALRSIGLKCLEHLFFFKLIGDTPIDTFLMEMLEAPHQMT

[7] = Selectivity ratio for agonist activity at FXR LBD (unknown origin) transiently transfected in HEK293T cells to agonist activity at human NOR-1 LBD transiently transfected in HEK293T cells
[8] = Selectivity ratio for agonist activity at RXRalpha LBD (unknown origin) transiently transfected in HEK293T cells to agonist activity at human Nur77 LBD transiently transfected in HEK293T cells
[9] = Selectivity ratio for agonist activity at PPARalpha LBD (unknown origin) transiently transfected in HEK293T cells to agonist activity at human Nur77 LBD transiently transfected in HEK293T cells
[10] = Selectivity ratio for agonist activity at VDR LBD (unknown origin) transiently transfected in HEK293T cells to agonist activity at human NOR-1 LBD transiently transfected in HEK293T cells
[11] = Selectivity ratio for agonist activity at RXRalpha LBD (unknown origin) transiently transfected in HEK293T cells to agonist activity at human NOR-1 LBD transiently transfected in HEK293T cells
[12] = Selectivity ratio for agonist activity at VDR LBD (unknown origin) transiently transfected in HEK293T cells to agonist activity at human Nurr1 LBD transiently transfected in HEK293T cells
[13] = Selectivity ratio for agonist activity at VDR LBD (unknown origin) transiently transfected in HEK293T cells to agonist activity at human Nur77 LBD transiently transfected in HEK293T cells
[14] = molecular target: T4, Nuclear receptor subfamily 4 group A member 2 (Homo sapiens, UniProt P43354); experiment: Agonist activity at full length human Nurr1 transiently transfected in HEK293T cells co-transfected with pFR-Luc-DR5 incubated for 16 hrs by Gal4-hybrid reporter gene based Dual-glo luciferase assay
T4 sequence (P43354 whole entry, the tested form may be a part): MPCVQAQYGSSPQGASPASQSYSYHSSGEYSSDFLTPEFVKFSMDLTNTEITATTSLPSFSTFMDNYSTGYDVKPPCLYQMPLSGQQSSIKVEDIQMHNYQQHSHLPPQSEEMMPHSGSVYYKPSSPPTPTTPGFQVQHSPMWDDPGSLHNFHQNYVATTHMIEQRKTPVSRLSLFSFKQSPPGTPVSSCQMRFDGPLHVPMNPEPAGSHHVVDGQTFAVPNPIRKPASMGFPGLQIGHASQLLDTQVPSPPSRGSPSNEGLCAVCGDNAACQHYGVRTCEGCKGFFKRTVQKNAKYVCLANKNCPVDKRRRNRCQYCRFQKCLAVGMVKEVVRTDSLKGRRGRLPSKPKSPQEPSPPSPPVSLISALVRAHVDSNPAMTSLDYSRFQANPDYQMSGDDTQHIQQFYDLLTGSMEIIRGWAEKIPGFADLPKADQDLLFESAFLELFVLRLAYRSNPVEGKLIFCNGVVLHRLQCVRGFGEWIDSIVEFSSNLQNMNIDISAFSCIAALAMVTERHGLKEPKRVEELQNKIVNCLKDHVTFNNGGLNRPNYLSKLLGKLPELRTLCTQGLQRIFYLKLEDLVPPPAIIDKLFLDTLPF

[15] = molecular target: T1, Nuclear receptor subfamily 4 group A member 3; experiment: Agonist activity at human NOR-1 LBD transiently transfected in HEK293T cells assessed as maximal activation incubated for 16 hrs by Gal4-hybrid reporter gene based Dual-glo luciferase assay relative to control; details: filed as agonist
[16] = molecular target: T4, Nuclear receptor subfamily 4 group A member 2; experiment: Agonist activity at human Nurr1 LBD transiently transfected in HEK293T cells incubated for 16 hrs by Gal4-hybrid reporter gene based Dual-glo luciferase assay; details: read-out: EC50
[17] = Selectivity ratio for agonist activity at PPARgamma LBD (unknown origin) transiently transfected in HEK293T cells to agonist activity at human NOR-1 LBD transiently transfected in HEK293T cells
[18] = molecular target: T5, Peroxisome proliferator-activated receptor delta (Homo sapiens) (UniProt Q03181); experiment: Agonist activity at PPARdelta LBD (unknown origin) transiently transfected in HEK293T cells at 1 uM incubated for 16 hrs by Gal4-hybrid reporter gene based Dual-glo luciferase assay
T5 sequence (whole entry): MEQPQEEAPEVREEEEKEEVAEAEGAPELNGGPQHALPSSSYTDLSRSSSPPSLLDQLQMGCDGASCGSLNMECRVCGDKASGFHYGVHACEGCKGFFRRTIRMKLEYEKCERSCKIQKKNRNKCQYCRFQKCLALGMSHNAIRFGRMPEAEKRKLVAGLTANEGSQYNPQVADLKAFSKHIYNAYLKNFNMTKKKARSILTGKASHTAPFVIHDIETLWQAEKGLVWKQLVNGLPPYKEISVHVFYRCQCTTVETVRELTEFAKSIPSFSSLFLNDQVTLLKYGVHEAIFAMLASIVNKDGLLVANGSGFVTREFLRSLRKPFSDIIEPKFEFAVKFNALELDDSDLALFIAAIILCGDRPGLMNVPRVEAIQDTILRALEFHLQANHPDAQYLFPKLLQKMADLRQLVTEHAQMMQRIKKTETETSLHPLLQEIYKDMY

CC(C)(C)c1ccc(COc2cccc(C(=O)O)c2)cc1
Selectivity ratio [1]: > 30 | pEC50 [2]: 7.15 | Selectivity ratio [3]: > 30 | Emax [4]: 163% | Activity [5]: inactive | Activity [6]: inactive | Selectivity ratio [7]: > 30 | Selectivity ratio [8]: > 30 | Selectivity ratio [9]: > 30 | Selectivity ratio [10]: > 30 | Selectivity ratio [11]: > 30 | Selectivity ratio [12]: > 30 | Selectivity ratio [13]: > 30 | pEC50 [14]: 7.92 | Emax [15]: 185% | pEC50 [16]: 6.92 | Selectivity ratio [17]: > 30 | Activity [18]: inactive
